# Assay results published in ChEMBL document CHEMBL3769377, “A synthesis, in silico, in vitro and in vivo study of thieno[2,3-b]pyridine anticancer analogues” (Medchemcomm, 2015).
# The source made the active and inactive calls. No cut-off for these calls is given here.
# Tests used:
# [1] = target: Mitogen-activated protein kinase 3 (Homo sapiens) (UniProt P27361); test: Inhibition of human recombinant ERK1 assessed as residual activity at 10 uM after 1 hr by qPCR analysis relative to control
# [2] = target: Fibroblast growth factor receptor 3 (Homo sapiens) (UniProt P22607); test: Inhibition of human recombinant FGFR3 assessed as residual activity at 10 uM after 1 hr by qPCR analysis relative to control
# [3] = target: Inhibitor of nuclear factor kappa-B kinase subunit alpha (Homo sapiens) (UniProt O15111); test: Inhibition of human recombinant IKKalpha assessed as residual activity at 10 uM after 1 hr by qPCR analysis relative to control
# [4] = target: Insulin receptor (Homo sapiens) (UniProt P06213); test: Inhibition of human recombinant INSR assessed as residual activity at 10 uM after 1 hr by qPCR analysis relative to control
# [5] = target: Mitogen-activated protein kinase 10 (Homo sapiens) (UniProt P53779); test: Inhibition of human recombinant JNK3 assessed as residual activity at 10 uM after 1 hr by qPCR analysis relative to control
# [6] = target: Hepatocyte growth factor receptor (Homo sapiens) (UniProt P08581); test: Inhibition of human recombinant MET assessed as residual activity at 10 uM after 1 hr by qPCR analysis relative to control
# [7] = target: Mitogen-activated protein kinase 11 (Homo sapiens) (UniProt Q15759); test: Inhibition of human recombinant p38beta assessed as residual activity at 10 uM after 1 hr by qPCR analysis relative to control
# 786-0 [8] = test: Antitumor activity against human 786-0 cells xenografted in athymic nude/beige mouse assessed as tumor growth inhibition at 0.16 mg/kg, ip qd after 24 days; type: functional, organism-based
# 786-0 [9] = test: Antitumor activity against human 786-0 cells xenografted in athymic nude/beige mouse assessed as reduction in tumor mass at 0.16 mg/kg, ip qd after 24 days; type: functional, organism-based
# [10] = target: Tyrosine-protein kinase ABL1 (Homo sapiens) (UniProt P00519); test: Inhibition of human recombinant non-phosphorylated ABL1 assessed as residual activity at 10 uM after 1 hr by qPCR analysis relative to control
# [11] = target: Tyrosine-protein kinase ABL1 (Homo sapiens) (UniProt P00519); test: Inhibition of human recombinant phosphorylated ABL1 assessed as residual activity at 10 uM after 1 hr by qPCR analysis relative to control
# [12] = target: Activin receptor type-1B (Homo sapiens) (UniProt P36896); test: Inhibition of human recombinant ACVR1B assessed as residual activity at 10 uM after 1 hr by qPCR analysis relative to control
# [13] = target: Cyclin-dependent kinase 2 (Homo sapiens) (UniProt P24941); test: Inhibition of human recombinant CDK2 assessed as residual activity at 10 uM after 1 hr by qPCR analysis relative to control
# Sequence of Tyrosine-protein kinase ABL1 (Homo sapiens) (P00519 whole entry): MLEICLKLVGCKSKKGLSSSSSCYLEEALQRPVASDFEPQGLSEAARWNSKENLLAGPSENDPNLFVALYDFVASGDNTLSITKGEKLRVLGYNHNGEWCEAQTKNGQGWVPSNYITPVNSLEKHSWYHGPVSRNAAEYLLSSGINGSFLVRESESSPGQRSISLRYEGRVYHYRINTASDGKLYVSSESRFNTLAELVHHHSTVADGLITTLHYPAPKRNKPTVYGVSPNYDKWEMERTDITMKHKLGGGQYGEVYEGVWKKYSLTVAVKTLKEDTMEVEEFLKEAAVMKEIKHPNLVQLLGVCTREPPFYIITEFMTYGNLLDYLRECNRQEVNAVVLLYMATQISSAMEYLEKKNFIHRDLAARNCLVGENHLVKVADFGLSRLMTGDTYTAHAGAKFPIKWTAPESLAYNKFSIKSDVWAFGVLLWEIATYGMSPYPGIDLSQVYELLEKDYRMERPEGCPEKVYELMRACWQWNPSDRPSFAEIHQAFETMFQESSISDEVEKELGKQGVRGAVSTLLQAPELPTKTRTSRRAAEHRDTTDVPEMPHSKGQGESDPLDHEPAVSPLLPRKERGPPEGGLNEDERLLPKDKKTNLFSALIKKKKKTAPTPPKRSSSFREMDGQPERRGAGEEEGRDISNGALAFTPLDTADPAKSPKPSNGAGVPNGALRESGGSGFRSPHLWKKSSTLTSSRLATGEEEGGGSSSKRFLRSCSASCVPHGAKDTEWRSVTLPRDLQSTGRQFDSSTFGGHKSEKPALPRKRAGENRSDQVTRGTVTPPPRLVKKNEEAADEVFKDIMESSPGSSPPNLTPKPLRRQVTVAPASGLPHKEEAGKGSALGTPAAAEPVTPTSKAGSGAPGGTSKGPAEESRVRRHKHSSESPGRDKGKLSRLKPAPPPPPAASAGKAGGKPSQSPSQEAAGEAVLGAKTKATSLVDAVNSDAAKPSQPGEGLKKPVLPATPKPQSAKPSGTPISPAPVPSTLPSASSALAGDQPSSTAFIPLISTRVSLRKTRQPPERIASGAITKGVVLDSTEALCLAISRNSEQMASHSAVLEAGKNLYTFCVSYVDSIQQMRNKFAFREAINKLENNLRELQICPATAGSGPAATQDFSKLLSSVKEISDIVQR
# Sequence of Fibroblast growth factor receptor 3 (Homo sapiens) (P22607 23-806 limits assumed): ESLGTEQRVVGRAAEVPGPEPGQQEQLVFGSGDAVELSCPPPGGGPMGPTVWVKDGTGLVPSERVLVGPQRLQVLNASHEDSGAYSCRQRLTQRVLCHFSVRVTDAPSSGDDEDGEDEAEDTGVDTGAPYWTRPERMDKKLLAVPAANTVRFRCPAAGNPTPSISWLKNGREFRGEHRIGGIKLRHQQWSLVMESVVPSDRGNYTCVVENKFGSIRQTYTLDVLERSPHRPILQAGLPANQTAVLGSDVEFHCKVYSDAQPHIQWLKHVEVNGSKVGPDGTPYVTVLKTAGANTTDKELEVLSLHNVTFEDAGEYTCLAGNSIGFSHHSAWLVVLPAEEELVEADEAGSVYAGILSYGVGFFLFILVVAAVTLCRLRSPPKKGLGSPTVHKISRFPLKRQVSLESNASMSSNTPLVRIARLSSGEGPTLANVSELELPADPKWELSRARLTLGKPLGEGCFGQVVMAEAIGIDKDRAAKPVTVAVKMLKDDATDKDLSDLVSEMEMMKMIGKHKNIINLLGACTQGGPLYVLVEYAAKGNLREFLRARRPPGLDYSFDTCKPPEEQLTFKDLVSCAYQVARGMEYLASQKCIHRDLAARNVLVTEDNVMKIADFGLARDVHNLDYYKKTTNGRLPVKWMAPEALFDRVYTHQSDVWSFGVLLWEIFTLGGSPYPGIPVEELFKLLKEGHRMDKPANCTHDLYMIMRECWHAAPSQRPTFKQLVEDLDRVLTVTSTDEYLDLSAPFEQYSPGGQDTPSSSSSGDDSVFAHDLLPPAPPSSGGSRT
# Sequence of Hepatocyte growth factor receptor (Homo sapiens) (P08581 whole entry): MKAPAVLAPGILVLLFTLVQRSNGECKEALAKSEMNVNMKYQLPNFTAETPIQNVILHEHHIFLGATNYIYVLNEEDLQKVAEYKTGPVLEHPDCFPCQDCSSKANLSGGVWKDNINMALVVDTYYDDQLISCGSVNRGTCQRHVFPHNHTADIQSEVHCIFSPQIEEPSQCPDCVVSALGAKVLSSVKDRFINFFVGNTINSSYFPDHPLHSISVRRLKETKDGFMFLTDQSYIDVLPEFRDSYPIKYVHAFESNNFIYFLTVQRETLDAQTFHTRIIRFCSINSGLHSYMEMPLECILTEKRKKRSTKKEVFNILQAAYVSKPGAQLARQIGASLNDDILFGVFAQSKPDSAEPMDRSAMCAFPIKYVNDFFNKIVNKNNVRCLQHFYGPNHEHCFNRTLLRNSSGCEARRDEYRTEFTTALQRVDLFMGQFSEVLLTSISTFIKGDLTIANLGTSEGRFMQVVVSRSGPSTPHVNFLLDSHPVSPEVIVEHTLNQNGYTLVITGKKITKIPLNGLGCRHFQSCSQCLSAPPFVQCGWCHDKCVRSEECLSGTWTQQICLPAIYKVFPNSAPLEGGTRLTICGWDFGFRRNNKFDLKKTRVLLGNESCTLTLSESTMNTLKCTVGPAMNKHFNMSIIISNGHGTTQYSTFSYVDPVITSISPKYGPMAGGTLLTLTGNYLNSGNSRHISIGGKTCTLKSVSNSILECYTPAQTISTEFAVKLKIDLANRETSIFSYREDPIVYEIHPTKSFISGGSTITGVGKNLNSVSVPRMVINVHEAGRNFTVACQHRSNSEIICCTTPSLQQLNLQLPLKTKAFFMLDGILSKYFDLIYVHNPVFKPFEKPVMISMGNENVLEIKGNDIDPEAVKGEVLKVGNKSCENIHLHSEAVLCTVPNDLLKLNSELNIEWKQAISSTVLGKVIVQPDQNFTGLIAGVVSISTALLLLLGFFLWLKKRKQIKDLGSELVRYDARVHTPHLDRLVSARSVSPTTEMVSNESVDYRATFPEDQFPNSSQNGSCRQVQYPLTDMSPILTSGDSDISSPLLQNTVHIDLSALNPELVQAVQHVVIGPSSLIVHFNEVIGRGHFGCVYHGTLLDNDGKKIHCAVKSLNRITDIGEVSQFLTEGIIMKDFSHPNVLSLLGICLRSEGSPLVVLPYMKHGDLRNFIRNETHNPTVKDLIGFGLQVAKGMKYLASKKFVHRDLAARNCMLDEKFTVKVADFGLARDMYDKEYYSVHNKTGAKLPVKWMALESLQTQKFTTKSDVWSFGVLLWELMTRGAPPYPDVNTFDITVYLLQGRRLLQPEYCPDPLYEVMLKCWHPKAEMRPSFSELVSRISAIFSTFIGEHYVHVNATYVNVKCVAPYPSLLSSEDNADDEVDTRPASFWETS
# Sequence of Insulin receptor (Homo sapiens) (P06213 28-758 limits assumed): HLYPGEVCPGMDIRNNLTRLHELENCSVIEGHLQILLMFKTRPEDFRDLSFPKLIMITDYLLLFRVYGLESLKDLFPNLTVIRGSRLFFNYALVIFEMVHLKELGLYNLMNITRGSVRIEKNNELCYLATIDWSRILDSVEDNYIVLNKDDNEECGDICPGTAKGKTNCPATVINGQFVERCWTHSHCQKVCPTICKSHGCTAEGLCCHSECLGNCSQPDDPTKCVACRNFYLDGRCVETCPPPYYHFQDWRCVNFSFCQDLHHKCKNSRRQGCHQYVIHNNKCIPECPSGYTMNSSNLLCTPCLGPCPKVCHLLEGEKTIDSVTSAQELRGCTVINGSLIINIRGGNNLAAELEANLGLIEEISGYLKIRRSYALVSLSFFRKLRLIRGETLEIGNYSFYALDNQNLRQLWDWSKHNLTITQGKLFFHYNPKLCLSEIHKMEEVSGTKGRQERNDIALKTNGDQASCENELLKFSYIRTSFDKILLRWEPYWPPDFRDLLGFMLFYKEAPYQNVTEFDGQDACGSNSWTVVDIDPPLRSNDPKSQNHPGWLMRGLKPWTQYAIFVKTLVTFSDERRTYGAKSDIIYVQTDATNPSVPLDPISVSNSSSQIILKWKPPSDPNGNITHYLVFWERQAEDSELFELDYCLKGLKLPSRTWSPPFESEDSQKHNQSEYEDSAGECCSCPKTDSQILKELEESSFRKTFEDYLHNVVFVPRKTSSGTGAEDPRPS
# Sequence of Insulin receptor (Homo sapiens) (P06213 763-1382 limits assumed): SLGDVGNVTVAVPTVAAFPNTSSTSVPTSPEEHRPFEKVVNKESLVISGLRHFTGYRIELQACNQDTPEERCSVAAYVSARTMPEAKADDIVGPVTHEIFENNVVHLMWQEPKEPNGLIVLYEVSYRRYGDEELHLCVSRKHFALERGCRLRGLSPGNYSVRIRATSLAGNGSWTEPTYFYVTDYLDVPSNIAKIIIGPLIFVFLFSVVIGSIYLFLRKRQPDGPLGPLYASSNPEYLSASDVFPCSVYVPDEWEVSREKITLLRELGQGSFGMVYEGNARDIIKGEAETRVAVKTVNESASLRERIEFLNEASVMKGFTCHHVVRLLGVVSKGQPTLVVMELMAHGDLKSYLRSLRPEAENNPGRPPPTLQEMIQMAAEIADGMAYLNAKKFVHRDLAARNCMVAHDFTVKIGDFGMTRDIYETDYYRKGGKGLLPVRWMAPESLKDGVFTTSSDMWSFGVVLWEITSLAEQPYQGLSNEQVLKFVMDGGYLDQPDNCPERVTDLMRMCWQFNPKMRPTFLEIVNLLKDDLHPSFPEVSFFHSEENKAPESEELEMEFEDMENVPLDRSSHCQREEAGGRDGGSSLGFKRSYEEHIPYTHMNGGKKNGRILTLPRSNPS
# Sequence of Mitogen-activated protein kinase 3 (Homo sapiens) (P27361 whole entry): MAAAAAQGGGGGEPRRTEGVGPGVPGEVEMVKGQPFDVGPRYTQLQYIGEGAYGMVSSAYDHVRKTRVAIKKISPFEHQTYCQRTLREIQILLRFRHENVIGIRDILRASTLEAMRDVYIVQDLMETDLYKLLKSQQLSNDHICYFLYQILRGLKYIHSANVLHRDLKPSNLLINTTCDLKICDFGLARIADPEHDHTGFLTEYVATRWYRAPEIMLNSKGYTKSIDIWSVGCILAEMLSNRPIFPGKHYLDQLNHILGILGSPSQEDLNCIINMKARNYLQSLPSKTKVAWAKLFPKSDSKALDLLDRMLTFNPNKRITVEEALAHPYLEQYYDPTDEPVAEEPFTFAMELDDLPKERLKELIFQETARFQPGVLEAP
structure (smiles),measurement,setting,value
Cc1c(Cl)cccc1NC(=O)c1sc2nc3c(cc2c1N)C(=O)CC3,Activity,[1],98%
same,Activity,[2],100%
same,Activity,[3],100%
same,Activity,[4],97%
same,Activity,[5],95%
same,Activity,[6],100%
same,Activity,[7],100%
same,TGI,786-0 [8],Active
same,Activity,786-0 [9],Active
same,Activity,[10],98%
same,Activity,[11],100%
same,Activity,[12],100%
same,Activity,[13],100%
